Converted amounts (≈) assume the structure as drawn. Like-named read-outs stand apart in the source and are kept apart here.
What was measured:
Test in all cases: In-vitro antimicrobial activity primary screen (agar dilution MIC)
Assay type in all cases: cell-based
[1] = system: Escherichia coli DC-2
Procedure: (§1) The antimicrobial spectra of several of the compounds of the present invention were tested as described below.
(§2) Twelve petri dishes containing successive aqueous dilutions of the test compounds, mixed with 10 mL of sterilized Brain Heart Infusion (BHI) agar (Difco 0418-01-5), were prepared. Each plate was inoculated with 1:100 (or 1:10 for slow growing strains (primarily Micrococcus and Streptococcus) dilutions of up to 32 different microorganisms, using a Steers replicator block. The inoculated plates were incubated at 35 37° C. for 20-24 hours. In addition, a control plate, using BHI agar containing no test compound, was prepared and incubated at the beginning and the end of each test.
(§3) An additional plate containing a compound having known susceptibility patterns for the organisms being tested and belonging to the same antibiotic class as the test compounds was also prepared and incubated as a further control, as well as to provide test-to test comparability.
(§4) After incubation, each plate was read. The MIC (minimum inhibitory concentration) is defined as the lowest concentration of test compound yielding no growth, a slight haze, or sparsely isolated colonies on the inoculum spot as compared to the growth control containing no test compound.

[2] = system: Pseudomonas aeruginosa BMH10; conditions: BHI agar, 20-24 h
Procedure: as §1, §2, §3, §4

[3] = system: Pseudomonas cepacia 2961; conditions: BHI agar, 20-24 h
Procedure: as §1, §2, §3, §4

[4] = system: Streptococcus agalactiae CMX 508; conditions: BHI agar, 20-24 h
Procedure: as §1, §2, §3, §4

[5] = system: Staphylococcus epidermidis 3519; conditions: BHI agar, 20-24 h
Procedure: as §1, §2, §3, §4

[6] = system: Staphylococcus aureus 45 RAR2; conditions: BHI agar, 20-24 h
Procedure: as §1, §2, §3, §4

[7] = system: Pseudomonas aeruginosa K799/61; conditions: Pseudomonas aeruginosa K799/61, BHI agar, 20-24 h
Procedure: as §1, §2, §3, §4

[8] = system: Pseudomonas aeruginosa A5007
Procedure: as §1, §2, §3, §4

[9] = system: Escherichia coli SS; conditions: BHI agar, 20-24 h
Procedure: as §1, §2, §3, §4

[10] = system: Micrococcus luteus ATCC 4698; conditions: BHI agar, 20-24 h
Procedure: as §1, §2, §3, §4

[11] = system: Escherichia coli JUHL
Procedure: as §1, §2, §3, §4

[12] = system: Streptococcus pyrogenes 2548 INDUC; conditions: BHI agar, 20-24 h
Procedure: as §1, §2, §3, §4

[13] = system: Enterococcus faecium ATCC 8043
Procedure: as §1, §2, §3, §4

[14] = system: Escherichia coli H560
Procedure: as §1, §2, §3, §4

[15] = system: Enterobacter aerogenes ATCC 13048
Procedure: as §1, §2, §3, §4

[16] = system: Streptococcus bovis A5169; conditions: BHI agar, 20-24 h
Procedure: as §1, §2, §3, §4

[17] = system: Acinetobacter SP CMX 669
Procedure: as §1, §2, §3, §4

[18] = system: Streptococcus pyrogenes EES61; conditions: BHI agar, 20-24 h
Procedure: as §1, §2, §3, §4

[19] = system: Staphylococcus aureus A5177; conditions: Staphylococcus aureus A5177, BHI agar, 20-24 h
Procedure: as §1, §2, §3, §4

[20] = system: Staphylococcus aureus 45; conditions: BHI agar, 20-24 h
Procedure: as §1, §2, §3, §4

[21] = system: Providencia stuartii CMX 640
Procedure: as §1, §2, §3, §4

[22] = system: Klebsiella pneumoniae ATCC 8045
Procedure: as §1, §2, §3, §4

[23] = system: Micrococcus luteus ATCC 9341; conditions: 20-24 h
Procedure: as §1, §2, §3, §4

[24] = system: Pseudomonas aeruginosa K799/WT
Procedure: as §1, §2, §3, §4

[25] = system: Staphylococcus aureus ATCC 6538P; conditions: BHI agar, 20-24 h
Procedure: as §1, §2, §3, §4

[26] = system: Staphylococcus aureus CMX 686B; conditions: BHI agar, 20-24 h
Procedure: as §1, §2
(§5) An additional plate containing a compound having known susceptibility patterns for the organisms being tested and belonging to the same antibiotic class as the test compounds was also prepared and incubated as a further control, as well as to provide test-to test comparability. Erythromycin A was used for this purpose.
as §4

[27] = system: Staphylococcus aureus CMX 553; conditions: BHI agar, 20-24 h
Procedure: as §1, §2, §5, §4

[28] = system: Staphylococcus aureus CMX 503A; conditions: BHI agar, 20-24 h
Procedure: as §1, §2, §5, §4

[29] = Pseudomonas aeruginosa, BMH10, 24 h
[30] = Burkholderia cepacia, 2961, 24 h
[31] = Streptococcus agalactiae, CMX508, 24 h
[32] = Staphylococcus epidermidis, 3519, 24 h
[33] = Staphylococcus aureus, 45RAR2, 24 h
[34] = Pseudomonas aeruginosa, K799/61, 24 h
[35] = Pseudomonas aeruginosa, A5007, 24 h
[36] = Micrococcus luteus, ATCC4698, 24 h
[37] = Enterococcus faecium, ATCC8043, 24 h
[38] = Klebsiella aerogenes, ATCC13048, 24 h
[39] = Providencia stuartii, CMX640, 24 h
[40] = Klebsiella pneumoniae, ATCC8045, 24 h
[41] = Pseudomonas aeruginosa, K799/WT, 24 h
[42] = Staphylococcus aureus, ATCC6538P, 24 h
[43] = Staphylococcus aureus, CMX553, 24 h, read-out: MIC
[44] = Staphylococcus aureus, CMX503A, 24 h, read-out: MIC

CC[C@H]1OC(=O)[C@H](C)[C@@H](O[C@H]2C[C@@](C)(OC)[C@H](NCc3ccccc3)[C@H](C)O2)[C@H](C)[C@@H](O[C@@H]2O[C@H](C)C[C@H](N(C)C)[C@H]2O)[C@](C)(O)C[C@@H](C)[C@@H]2O[C@@]1(C)C(=O)[C@H]2C [Example 12, (4"R,9S)-9-Deoxo-4", 11,12-trideoxy-9,12-epoxy-11-oxo-4"-[(phenylmethyl)amino]erythromycin A]
MIC ([1]; Escherichia coli, DC2, 24 h): > 100 µg/mL | MIC [2, 29]: > 100 µg/mL | MIC [3, 30]: > 100 µg/mL | MIC [4, 31]: 0.1 µg/mL (≈ 0.124 µM) | MIC [5, 32]: 0.39 µg/mL (≈ 0.484 µM) | MIC [6, 33]: 0.39 µg/mL (≈ 0.484 µM) | MIC [7, 34]: 3.1 µg/mL (≈ 3.85 µM) | MIC [8, 35]: > 100 µg/mL | MIC ([9]; read-out: MIC): 3.1 µg/mL (≈ 3.85 µM) | MIC [10, 36]: 0.39 µg/mL (≈ 0.484 µM) | MIC ([11]; Escherichia coli, 24 h): > 100 µg/mL | MIC ([12]; Streptococcus, 2548INDUC, 24 h): 3.1 µg/mL (≈ 3.85 µM) | MIC [13, 37]: 0.2 µg/mL (≈ 0.248 µM) | MIC ([14]; Escherichia coli, H560, 24 h): > 100 µg/mL | MIC [15, 38]: > 100 µg/mL | MIC ([16]; Streptococcus equinus, A5169, 24 h): 0.05 µg/mL (≈ 0.0621 µM) | MIC ([17]; Acinetobacter, SPCMX669, 24 h): > 100 µg/mL | MIC ([18]; read-out: MIC): 0.1 µg/mL (≈ 0.124 µM) | MIC ([19]; read-out: MIC): 0.39 µg/mL (≈ 0.484 µM) | MIC ([20]; read-out: MIC): 0.2 µg/mL (≈ 0.248 µM) | MIC [21, 39]: > 100 µg/mL | MIC [22, 40]: > 100 µg/mL | MIC ([23]; ATCC9341, BHI agar, read-out: MIC): 0.05 µg/mL (≈ 0.0621 µM) | MIC [24, 41]: 100 µg/mL (≈ 124 µM) | MIC [25, 42]: 0.39 µg/mL (≈ 0.484 µM) | MIC ([26]; CMX686B, read-out: MIC): 0.39 µg/mL (≈ 0.484 µM) | MIC [27, 43]: 0.2 µg/mL (≈ 0.248 µM) | MIC [28, 44]: 0.39 µg/mL (≈ 0.484 µM)

CC[C@H]1OC(=O)[C@H](C)[C@@H](O[C@H]2C[C@@](C)(OC)[C@H](N=CN(C)C)[C@H](C)O2)[C@H](C)[C@@H](O[C@@H]2O[C@H](C)C[C@H](N(C)C)[C@H]2O)[C@](C)(O)C[C@@H](C)[C@@H]2O[C@@]1(C)C(=O)[C@H]2C [Example 9, (4"R,9S)-9-Deoxo-4",11,12-trideoxy-9,12-epoxy-4"-[[(dimethyamino)methylene]amino]-11-oxoerythromycin A]
MIC ([1]; Escherichia coli, DC2, 24 h): > 100 µg/mL | MIC [2, 29]: > 100 µg/mL | MIC [3, 30]: > 100 µg/mL | MIC [4, 31]: 0.01 µg/mL (≈ 0.013 µM) | MIC [5, 32]: 0.39 µg/mL (≈ 0.506 µM) | MIC [6, 33]: 0.78 µg/mL (≈ 1.01 µM) | MIC [7, 34]: 3.1 µg/mL (≈ 4.03 µM) | MIC [8, 35]: > 100 µg/mL | MIC ([9]; read-out: MIC): 0.78 µg/mL (≈ 1.01 µM) | MIC [10, 36]: 0.2 µg/mL (≈ 0.26 µM) | MIC ([11]; Escherichia coli, 24 h): > 100 µg/mL | MIC ([12]; read-out: MIC): 6.2 µg/mL (≈ 8.05 µM) | MIC [13, 37]: 0.1 µg/mL (≈ 0.13 µM) | MIC ([14]; Escherichia coli, H560, 24 h, Escherichia coli H560, BHI agar, 20-24 h): 50 µg/mL (≈ 64.9 µM) | MIC [15, 38]: > 100 µg/mL | MIC ([16]; Streptococcus equinus, read-out: MIC): < 0.005 µg/mL | MIC ([17]; Acinetobacter, SPCMX669, 24 h): 50 µg/mL (≈ 64.9 µM) | MIC ([18]; read-out: MIC): < 0.005 µg/mL | MIC ([19]; Staphylococcus aureus, A5177, 24 h): 0.78 µg/mL (≈ 1.01 µM) | MIC ([20]; read-out: MIC): 0.39 µg/mL (≈ 0.506 µM) | MIC [21, 39]: > 100 µg/mL | MIC [22, 40]: > 100 µg/mL | MIC ([23]; Micrococcus luteus, ATCC9341, 24 h, BHI agar): 0.02 µg/mL (≈ 0.026 µM) | MIC [24, 41]: 100 µg/mL (≈ 130 µM) | MIC [25, 42]: 0.39 µg/mL (≈ 0.506 µM) | MIC ([26]; CMX686B, read-out: MIC): 0.39 µg/mL (≈ 0.506 µM) | MIC [27, 43]: 0.39 µg/mL (≈ 0.506 µM) | MIC [28, 44]: 0.39 µg/mL (≈ 0.506 µM)

CC[C@H]1OC(=O)[C@H](C)[C@@H](O[C@H]2C[C@@](C)(OC)[C@@H](O)[C@H](C)O2)[C@H](C)[C@@H](O[C@@H]2O[C@H](C)C[C@H](N(C)C)[C@H]2O)[C@](C)(O)C[C@@H](C)[C@@H]2O[C@@]1(C)C(=NO)[C@H]2C [Example 18, (9S)-9-Deoxo-11,12-dideoxy-9,12-epoxy-11-hydroxyiminoerythromycin A]
MIC ([1]; Escherichia coli DC-2, BHI agar, 20-24 h): > 100 microgram/mL | MIC [2]: > 100 microgram/mL | MIC [3]: > 100 microgram/mL | MIC [4]: 0.05 microgram/mL | MIC [5]: 0.39 microgram/mL | MIC [6]: 0.39 microgram/mL | MIC [7]: 6.2 microgram/mL | MIC ([8]; Pseudomonas aeruginosa A5007, BHI agar, 20-24 h): > 100 microgram/mL | MIC [9]: 1.56 microgram/mL | MIC [10]: 0.1 microgram/mL | MIC ([11]; Escherichia coli JUHL, BHI agar, 20-24 h): > 100 microgram/mL | MIC [12]: 1.56 microgram/mL | MIC ([13]; Enterococcus faecium ATCC 8043, BHI agar, 20-24 h): 0.2 microgram/mL | MIC ([14]; Escherichia coli H560, BHI agar, 20-24 h): > 100 microgram/mL | MIC ([15]; Enterobacter aerogenes ATCC 13048, BHI agar, 20-24 h): > 100 microgram/mL | MIC [16]: 0.1 microgram/mL | MIC ([17]; Acinetobacter SP CMX 669, BHI agar, 20-24 h): > 100 microgram/mL | MIC [18]: 0.02 microgram/mL | MIC [19]: 0.78 microgram/mL | MIC [20]: 0.2 microgram/mL | MIC ([21]; Providencia stuartii CMX 640, BHI agar, 20-24 h): > 100 microgram/mL | MIC ([22]; Klebsiella pneumoniae ATCC 8045, BHI agar, 20-24 h): > 100 microgram/mL | MIC ([23]; BHI agar): 0.1 microgram/mL | MIC ([24]; Pseudomonas aeruginosa K799/WT, BHI agar, 20-24 h): > 100 microgram/mL | MIC [25]: 0.2 microgram/mL | MIC [26]: 0.2 microgram/mL | MIC [27]: 0.2 microgram/mL | MIC [28]: 0.2 microgram/mL
